Measurements: ChEMBL document CHEMBL1148559, “Synthesis and monoamine transporter affinity of new 2beta-carbomethoxy-3beta-[aryl or heteroaryl]phenyltropanes” (Bioorg Med Chem Lett, 2006)

Assays:
[1] = molecular target: Sodium-dependent serotonin transporter (Rattus norvegicus, UniProt P31652); experiment: Displacement of [3H]paroxetine from SERT in rat frontoparietal cerebral cortex; format: tissue-based
[2] = molecular target: Sodium-dependent dopamine transporter (Rattus norvegicus, UniProt P23977); experiment: Displacement of [3H]GBR-12935 from DAT in rat […]; format: tissue-based
Sodium-dependent dopamine transporter, sequence (P23977 whole entry): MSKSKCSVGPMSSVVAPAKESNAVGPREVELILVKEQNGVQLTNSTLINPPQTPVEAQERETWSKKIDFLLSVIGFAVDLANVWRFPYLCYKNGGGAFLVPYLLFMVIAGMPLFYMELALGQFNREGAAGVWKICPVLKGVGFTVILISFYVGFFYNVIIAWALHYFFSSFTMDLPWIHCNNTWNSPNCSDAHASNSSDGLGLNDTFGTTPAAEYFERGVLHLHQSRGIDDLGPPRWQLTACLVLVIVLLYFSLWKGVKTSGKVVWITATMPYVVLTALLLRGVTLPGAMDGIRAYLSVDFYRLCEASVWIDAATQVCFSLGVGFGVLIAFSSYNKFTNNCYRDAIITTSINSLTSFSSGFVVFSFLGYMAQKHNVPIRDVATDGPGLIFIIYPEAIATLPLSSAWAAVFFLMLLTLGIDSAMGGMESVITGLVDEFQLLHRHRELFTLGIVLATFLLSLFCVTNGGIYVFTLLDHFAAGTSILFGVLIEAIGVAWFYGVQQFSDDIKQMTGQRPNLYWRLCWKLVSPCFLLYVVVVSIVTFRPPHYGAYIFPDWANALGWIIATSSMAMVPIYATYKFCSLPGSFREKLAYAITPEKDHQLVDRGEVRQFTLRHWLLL

[3] = molecular target: Norepinephrine transporter (Rattus norvegicus, UniProt Q9WTR4); experiment: Displacement of [3H]nisoxetine from NET in rat […]; format: tissue-based
Norepinephrine transporter, sequence (Q9WTR4 whole entry): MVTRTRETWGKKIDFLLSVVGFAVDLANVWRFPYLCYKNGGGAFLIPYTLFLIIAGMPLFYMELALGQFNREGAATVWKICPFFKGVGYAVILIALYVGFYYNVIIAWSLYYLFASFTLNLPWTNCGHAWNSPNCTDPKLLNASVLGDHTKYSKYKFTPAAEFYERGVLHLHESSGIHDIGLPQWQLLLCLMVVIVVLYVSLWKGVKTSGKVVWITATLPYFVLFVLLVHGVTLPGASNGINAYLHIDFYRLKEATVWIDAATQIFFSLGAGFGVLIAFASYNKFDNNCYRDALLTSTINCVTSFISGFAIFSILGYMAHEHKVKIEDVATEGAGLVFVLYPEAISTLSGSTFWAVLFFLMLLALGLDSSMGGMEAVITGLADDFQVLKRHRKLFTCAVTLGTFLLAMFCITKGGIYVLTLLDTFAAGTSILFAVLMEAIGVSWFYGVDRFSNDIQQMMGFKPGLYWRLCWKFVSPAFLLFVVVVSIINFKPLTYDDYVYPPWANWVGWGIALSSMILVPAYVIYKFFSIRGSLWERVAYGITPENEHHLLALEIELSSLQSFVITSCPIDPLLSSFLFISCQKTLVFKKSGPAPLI

[4] = Selectivity for SERT over DAT; format: protein assay; details: Rattus norvegicus
[5] = molecular target: Monoamine transporters; Norepinephrine & serotonin (Rattus norvegicus) (UniProt P31652+Q9WTR4); experiment: Selectivity for SERT over NET; format: protein assay

Sodium-dependent serotonin transporter, sequence (P31652 whole entry): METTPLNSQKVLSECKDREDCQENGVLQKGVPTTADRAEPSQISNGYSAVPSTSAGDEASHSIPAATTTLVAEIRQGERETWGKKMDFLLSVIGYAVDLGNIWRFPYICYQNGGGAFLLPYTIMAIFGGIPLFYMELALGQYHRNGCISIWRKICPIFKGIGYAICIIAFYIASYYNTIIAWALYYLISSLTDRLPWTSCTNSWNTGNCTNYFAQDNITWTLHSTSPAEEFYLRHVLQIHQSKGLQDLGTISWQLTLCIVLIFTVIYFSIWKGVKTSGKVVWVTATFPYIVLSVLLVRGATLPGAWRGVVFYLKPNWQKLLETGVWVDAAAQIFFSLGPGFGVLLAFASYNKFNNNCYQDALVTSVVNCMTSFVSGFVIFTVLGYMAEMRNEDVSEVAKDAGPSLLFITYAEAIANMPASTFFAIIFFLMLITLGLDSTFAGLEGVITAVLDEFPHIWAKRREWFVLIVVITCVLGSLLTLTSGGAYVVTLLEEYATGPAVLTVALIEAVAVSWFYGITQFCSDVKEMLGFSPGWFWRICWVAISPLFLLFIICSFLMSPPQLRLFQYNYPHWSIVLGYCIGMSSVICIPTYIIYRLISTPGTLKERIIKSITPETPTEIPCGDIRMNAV

Row | SMILES | Ki [1] [nM] | Ki [2] [nM] | Ki [3] [nM] | Ratio Ki [4] | Ratio Ki [5]
1 | COC(=O)C1C(c2ccc(-c3cccc(F)c3)cc2)CC2CCC1N2C (stereo not given) | 0.5 | 25.2 | 249 | 50 | 498
2 | COC(=O)C1C(c2ccc(-c3cccnc3)cc2)CC2CCC1N2C (stereo not given) | – | 26.1 | 1410 | 7 | –
3 | COC(=O)C1C2CCC(CC1c1ccc(-c3cncc(OC)c3)cc1)N2 (stereo not given) | 1.56 | 332 | 739 | 212 | –
4 | COC(=O)C1C(c2ccc(-c3ccco3)cc2)CC2CCC1N2C (stereo not given) | – | – | 1400 | 6 | –
5 | COC(=O)C1C(c2ccc(-c3cc(F)cc(F)c3)cc2)CC2CCC1N2C (stereo not given) | 0.41 | 31.7 | 109 | 77 | 265
6 | COC(=O)C1C(c2ccc(-c3cnc4ccccc4c3)cc2)CC2CCC1N2C (stereo not given) | – | – | > 30000 | 3 | –
7 | COC(=O)C1C2CCC(CC1c1ccc(-c3ccco3)cc1)N2 (stereo not given) | 0.15 | 3.76 | 12.7 | 25 | –
8 | COC(=O)C1C(c2ccc(-c3ccoc3)cc2)CC2CCC1N2C (stereo not given) | 0.35 | 14.2 | 127 | 40 | –
9 | COC(=O)C1C(c2ccc(-c3cnccn3)cc2)CC2CCC1N2C (stereo not given) | 11.3 | 121 | 213 | 10 | –
10 | COC(=O)C1C(c2ccc(-c3cccc(N(C)C)c3)cc2)CC2CCC1N2C (stereo not given) | > 1000 | 545 | > 30000 | – | –
11 | COC(=O)C1C(c2ccc(-c3ccncc3)cc2)CC2CCC1N2C (stereo not given) | > 1000 | 1570 | > 30000 | – | –
12 | COC(=O)C1C(c2ccc(-c3nccs3)cc2)CC2CCC1N2C (stereo not given) | 1.67 | 520 | > 10000 | 311 | –
13 | COC(=O)C1C(c2ccc(-c3cncnc3)cc2)CC2CCC1N2C (stereo not given) | – | – | > 10000 | 110 | –
14 | COC(=O)C1C(c2ccc(-c3cncc(OC)c3)cc2)CC2CCC1N2C (stereo not given) | 3.91 | 587 | 1590 | 150 | –
15 | COC(=O)C1C2CCC(CC1c1ccc(-c3nccs3)cc1)N2 (stereo not given) | 5.15 | 69.6 | 213 | 13 | –
16 | COC(=O)C1C(c2ccc(-c3ccccn3)cc2)CC2CCC1N2C (stereo not given) | – | – | > 10000 | 0.27 | –
